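48-hour exposure; five concentrations; linearly interpolated endpoints. Here, GI50 denotes the concentration required for 50% inhibition of growth.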 Active and inactive are the calls of the source. No stated cut-off is given here; in the data, active = GI50 up to about 1.1 µM and inactive = higher.
What was measured:
Test in all cases: DTP human tumour cell line panel, 48 h
[1] = test system: OVCAR-3
[2] = test system: M19-MEL
[3] = test system: DMS-273
[4] = test system: UO-31
[5] = test system: HCT-116
[6] = test system: MOLT-4
[7] = test system: DMS-114
[8] = test system: ACHN
[9] = test system: DLD-1
[10] = test system: NCI-H522
[11] = test system: 786-0
[12] = test system: HCC 2998
[13] = test system: K562
[14] = test system: HL-60
[15] = test system: HOP-92
[16] = test system: MDA-N
[17] = test system: BT-549
[18] = test system: T47D
[19] = test system: MDA-MB-231
[20] = test system: XF498

Measured: GI50

O=C1c2ccccc2C(=O)c2nc3c(O)cccc3cc21
inactive: [1] 1.87 µM | [2] 2.12 µM | [3] 6.61 µM | [4] 14.5 µM | [5] 4.12 µM | [6] 3.38 µM | [7] 3.81 µM | [8] 27 µM | [9] 9.75 µM | [10] 4.97 µM | [11] 6.38 µM | [12] 35.9 µM | [13] 5.83 µM

O=C(c1cc2ccccc2[nH]1)C(O)(c1cc2ccccc2[nH]1)c1cc2ccccc2[nH]1
inactive: [1] 20 µM | [3] > 246 µM | [14] > 246 µM | [5] 16.6 µM | [6] > 246 µM | [7] > 246 µM | [8] > 246 µM | [15] > 246 µM | [9] > 246 µM | [10] > 246 µM | [11] > 246 µM | [12] > 246 µM | [13] > 246 µM

Nc1ncn([C@H]2C[C@H](O)[C@@H](CO)O2)c(=O)n1 [DECITABINE]
inactive: [1] 76.6 µM | [2] 5.86 µM | [16] 1.46 µM | [17] 13.6 µM | [4] 298 µM | [14] > 24.8 µM | [18] 10.4 µM | [5] 48.9 µM | [6] 11.6 µM | [7] 371 µM | [19] 17.8 µM | [8] 21.5 µM | [15] 175 µM | [9] 3.09 µM | [10] 36.7 µM | [20] 25.5 µM | [11] 9.42 µM | [12] 105 µM | [13] 18.7 µM

CC/C(SC)=[N+](\C)[O-]
inactive: [1] > 100 µM | [2] > 100 µM | [4] > 100 µM | [14] 17.9 µM | [5] > 46.9 µM | [6] 32.7 µM | [7] > 39 µM | [8] > 100 µM | [15] > 100 µM | [9] > 45.9 µM | [10] > 43.1 µM | [20] > 100 µM | [11] > 100 µM | [12] > 100 µM | [13] 44.2 µM

O=C(O)C1c2ccccc2C(C(=O)O)c2ccccc21 (centres undefined)
inactive: [2] > 100 µM | [3] > 100 µM | [4] > 100 µM | [14] > 100 µM | [5] > 100 µM | [6] > 100 µM | [7] > 100 µM | [8] > 100 µM | [15] > 100 µM | [9] > 100 µM | [10] > 100 µM | [11] > 100 µM | [12] > 100 µM | [13] > 100 µM

O=C(CCc1nnc2s/c(=C\c3ccccc3Cl)c(=O)n12)Nc1cc(Cl)ccc1Cl
inactive: [1] > 100 µM | [2] > 100 µM | [4] > 100 µM | [14] > 100 µM | [5] > 100 µM | [6] > 100 µM | [7] > 100 µM | [8] > 100 µM | [15] > 100 µM | [9] > 100 µM | [10] > 100 µM | [20] 70.8 µM | [11] > 100 µM | [12] > 100 µM | [13] > 100 µM

— ChEMBL document CHEMBL1201862, “PubChem BioAssay data set” (2004)
